According to patent US3985742A, “Process for preparing 3-hydroxymethyl cephalosporins” (priority 1975, dated 1976):
“Also recorded” adds a separate entry of the source. Counter-ions that a name gives are not always drawn. Like-named read-outs stand apart in the source and are kept apart here.

How the values were obtained:
Pseudomonas aeruginosa = assay: disc-plate agar diffusion, antibacterial spectrum; format: cell-based; conditions: 192 μg/ml, 25 °C, 7 mm = no zone, read-out: Inhibition Zone Diameter
Serratia marcescens = assay: disc-plate agar diffusion, antibacterial spectrum; format: cell-based; conditions: 192 μg/ml, 25 °C, 7 mm = no zone, read-out: Inhibition Zone Diameter
Staphylococcus aureus = assay: disc-plate agar diffusion, antibacterial spectrum; format: cell-based; conditions: 192 μg/ml, 25 °C, 7 mm = no zone, read-out: Inhibition Zone Diameter
Sarcina lutea = assay: disc-plate agar diffusion, antibacterial spectrum; format: cell-based; conditions: Micrococcus luteus; 192 μg/ml; 25 °C; 7 mm = no zone; read-out: Inhibition Zone Diameter
[1] = system: Staphylococcus aureus (Streptomycin-Streptothricin-resistant); assay: disc-plate agar diffusion, antibacterial spectrum; format: cell-based; conditions: read-out: Inhibition Zone Diameter
Streptococcus faecalis = assay: disc-plate agar diffusion, antibacterial spectrum; format: cell-based; conditions: Enterococcus faecalis; 192 μg/ml; 37 °C; 7 mm = no zone; read-out: Inhibition Zone Diameter
Alcaligenes faecalis = assay: disc-plate agar diffusion, antibacterial spectrum; format: cell-based; conditions: 192 μg/ml, 37 °C, 7 mm = no zone, read-out: Inhibition Zone Diameter
Brucella bronchiseptica = assay: microbe, parasite or virus in culture; format: cell-based; conditions: Bordetella bronchiseptica, read-out: Inhibition Zone Diameter
Vibrio percolans = assay: disc-plate agar diffusion, antibacterial spectrum; format: cell-based; conditions: Comamonas terrigena; 192 μg/ml; 27 °C; 7 mm = no zone; read-out: Inhibition Zone Diameter
[2] = system: Escherichia coli, Streptomycin-resistant; assay: cross-resistance, disc-plate agar diffusion; format: cell-based; conditions: read-out: Inhibition Zone Diameter
[3] = system: Escherichia coli, Pleocidin-resistant; assay: cross-resistance, disc-plate agar diffusion; format: cell-based; conditions: read-out: Inhibition Zone Diameter
[4] = system: Escherichia coli, Chloramphenicol-resistant; assay: cross-resistance, disc-plate agar diffusion; format: cell-based; conditions: read-out: Inhibition Zone Diameter
[5] = system: Escherichia coli, Chlortetracycline-resistant; assay: microbe, parasite or virus in culture; format: cell-based; conditions: read-out: Inhibition Zone Diameter
[6] = system: Escherichia coli, Neomycin-resistant; assay: cross-resistance, disc-plate agar diffusion; format: cell-based; conditions: read-out: Inhibition Zone Diameter
[7] = system: Escherichia coli, Viomycin-resistant; assay: cross-resistance, disc-plate agar diffusion; format: cell-based; conditions: read-out: Inhibition Zone Diameter
[8] = system: Escherichia coli, Polymyxin-resistant; assay: cross-resistance, disc-plate agar diffusion; format: cell-based; conditions: read-out: Inhibition Zone Diameter
[9] = system: Escherichia coli, Grisein-resistant; assay: cross-resistance, disc-plate agar diffusion; format: cell-based; conditions: read-out: Inhibition Zone Diameter
Escherichia coli W-MB-60 [10] = assay: special effects spectrum, disc-plate agar diffusion; format: cell-based; conditions: WMB60, 192 μg/ml, read-out: Inhibition Zone Diameter
Escherichia coli 236 = assay: bacterial inactivation; conditions: 4 hours; assayed on B. subtilis (MB-964)
Protocol: (§1) These cultures are: Escherichia coli 236, Proteus morganii 251, Proteus morganii 356 and Proteus mirabilis 241. […] In conducting the assay, individual mixtures of the organisms and one of the antibiotics were sampled after four hours incubation and assayed for residual antibiotic activity. The procedure is the same assay method as described above against Alcaligenes faecalis MB-9 and A. viscosus MB-12.

Proteus mirabilis 241 = assay: bacterial inactivation; conditions: washed bacterial cells, 4 h
Protocol: as §1

Proteus morganii 251 = assay: bacterial inactivation; conditions: washed bacterial cells, 4 h
Protocol: as §1

Proteus morganii 356 = assay: bacterial inactivation; conditions: washed bacterial cells, 4 h
Protocol: as §1

[11] = blood appearance and urinary excretion; format: in vivo, mice; conditions: for appearance in blood / excretion: in vivo
[12] = isoelectric point and pH stability; format: physicochemical; conditions: for stability: pH 1.5
[13] = system: gram-negative and gram-positive infections; assay: in vivo protection, summary statements; design: species or system mice; conditions: for protection against infection, oral: given orally; for in vivo activity / protection spectrum: mouse
Protocol: (§2) Methods: The method employed in this characterization is as follows: Female white Swiss mice, average weight 20-23 grams, were infected intraperitoneally with 3-20 times the number of organisms calculated to be lethal for 50% of the infected control animals (3-20 LD50 doses). At the time of infection and again 6 hours later, therapy was given by the designated route. Controls of the virulence of the culture and the toxicity of the antibiotic for uninfected mice were included in the tests. Seven days after infection the test was considered complete and the amount of the antibiotic (I) that would be required to protect 50% of the infected and treated animals was calculated by the method of Knudsen and Curtis; J. Amer. Stat. Assoc. Vol. 42: page 282 (1947).
The method employed in these studies is the same as described above with regard to the in vivo characterization of 810A.

[14] = system: cephalosporinases and penicillinase; assay: resistance to enzymatic degradation / bacterial inactivation, summary statements
gram-negative bacteria = assay: in vitro growth inhibition, summary; format: cell-based
gram-positive bacteria = assay: in vitro growth inhibition, summary; format: cell-based; conditions: S. aureus, Sarcina lutea, B. subtilis
bacteria = assay: bactericidal action and development of resistance
[15] = system: Alcaligenes faecalis MB-9; assay: bacterial inactivation by washed bacterial cells; conditions: 4 hour; assayed on B. subtilis (MB-964); start 4 mg/ml
[16] = system: Alcaligenes viscosus MB-12; assay: bacterial inactivation by washed bacterial cells; conditions: 4 hour; assayed on B. subtilis (MB-964); start 4 mg/ml
[17] = relative biopotency of blocked intermediate; conditions: starting material: disodium salt of 842A
Escherichia coli W-MB-60 [18] = assay: disc zone bioassay of derivatives; format: cell-based; conditions: WMB60, 100γ/ml, read-out: disc zone size
Source text: (§3) Bioassay: the disc zone sizes in the following table are expressed in mm. for 100γ/ml of antibiotic.
(§4) Bioassay: The disc zone sizes in the following table are expressed in mm. for equal concentrations of antibiotic.

[19] = system: Pseudomonas stutzeri MB-1231; assay: disc zone bioassay of derivatives; format: cell-based; conditions: Stutzerimonas stutzeri, MB1231, 100γ/ml; read-out: disc zone size
Source text: as §3
Bioassay: the disc zone sizes in the following table are expressed in mm. for equal concentrations of antibiotic.
as §4

[20] = system: several strains of bacteria; assay: bioactivity, summary; format: cell-based
Vibrio percolans MB-1272 = assay: disc-plate bioassay using Vibrio percolans; conditions: Comamonas terrigena, MB1272, read-out: disc zone size, 5γ/ml
[21] = toxicity in uninfected mice; conditions: mouse, in vivo
Protocol: as §2

## CO[C@@]1(NC(=O)CCC[C@@H](N)C(=O)O)C(=O)N2C(C(=O)O)=C(COC(N)=O)CS[C@@H]21 [Sodium Salt]
Pseudomonas aeruginosa
  zone of inhibition at 192 µg/mL: 7 mm
Serratia marcescens
  zone of inhibition at 192 µg/mL: 7 mm
Staphylococcus aureus
  zone of inhibition at 192 µg/mL: 7 mm
Sarcina lutea
  zone of inhibition at 192 µg/mL: 9 mm
[1]
  zone of inhibition at 192 µg/mL: 10 mm
Streptococcus faecalis
  zone of inhibition at 192 µg/mL: 7 mm
Alcaligenes faecalis
  zone of inhibition at 192 µg/mL: 7 mm
Brucella bronchiseptica
  zone of inhibition at 192 µg/mL: 26 mm
Vibrio percolans
  zone of inhibition at 192 µg/mL: 38 mm
[2]
  zone of inhibition at 192 µg/mL: 16 mm
[3]
  zone of inhibition at 192 µg/mL: 17 mm
[4]
  zone of inhibition at 192 µg/mL: 16 mm
[5]
  zone of inhibition at 192 µg/mL: 23 mm
[6]
  zone of inhibition at 192 µg/mL: 17 mm
[7]
  zone of inhibition at 192 µg/mL: 30 mm
[8]
  zone of inhibition at 192 µg/mL: 7 mm
[9]
  zone of inhibition at 192 µg/mL: 16 mm
Escherichia coli W-MB-60 [10]; 0.1 M phosphate buffer pH 5, 25 °C
  zone of inhibition at 192 µg/mL: 15 mm
Escherichia coli W-MB-60 [10]; 0.1 M phosphate buffer pH 7, 25 °C
  zone of inhibition at 192 µg/mL: 25 mm

## CO[C@@]1(NC(=O)CCC[C@@H](N)C(=O)O)C(=O)N2C(C(=O)O)=C(COC(N)=O)CS[C@@H]21 [Example 842A]
Escherichia coli 236
  percent inactivation: 38%
Proteus mirabilis 241
  percent inactivation: 5%
Proteus morganii 251
  percent inactivation: 80%
Proteus morganii 356
  percent inactivation: 69%
[11]; mouse
  appearance in blood / excretion: rapidly excreted in the urine
[11]; mouse, listed as Antibiotic 842A
  appearance in blood / excretion: appears rapidly in the blood
[11]; mouse, urine, sc, within four hours after administration, read-out: eliminated/recovered in the urine
  dose excreted at 4 h: ~79%
[11]; within four hours after administration, 240 min, listed as Antibiotic 842A, 240 min
  eliminated/recovered in the urine: approximately 80%
[12]; amphoteric compound
  apparent isoelectric point: ~3.5 pH
[12]
  stability: stable
[12]; listed as Antibiotic 842A
  stability: relatively stable
[13]
  protection against infection, oral: protects against infections due to Paracolobactrum arizonae 3270, Proteus vulgaris 1810, and Salmonella schottmuelleri 3010
[13]; listed as Antibiotic 842A
  in vivo activity / protection spectrum: protects against infection with three species of Proteus, two of Salmonella, one strain of Escherichia coli, two of Klebsiella and also against Paracolobactrum arizonae, Aerobacter aerogenes, Pasteurella multocida and Diplococcus pneumoniae 2400; also recorded: effectiveness against the following gram-negative bacteria: Escherichia coli, Proteus vulgaris, Proteus mirabilis, Proteus morganii, Salmonella schottmuelleri, Klebsiella pneumoniae AD, Klebsiella pneumoniae B, and Paracolobactrum arizonae
[14]; listed as Antibiotic 842A
  resistance to enzymatic degradation / inactivation: greater resistance to cephalosporinases; also recorded: more resistant to enzymatic degradation than cephalosporin C; also recorded: more stable than the latter against certain microorganisms; also recorded: more resistant than cephalosporin C to inactivation by A. faecalis, A. viscosus, Escherichia coli 236, Proteus morganii 251, Proteus morganii 236 and Proteus mirabilis 241
gram-negative bacteria
  activity against Salmonella: exhibits activity against Salmonella schottmuelleri 3010, S. gallinarum and S. typhosa
gram-negative bacteria; in vitro, E. coli, P. vulgaris, A. faecalis, B. bronchiseptica, S. gallinarum, V. percolans, X. vesicatoria
  growth inhibition: inhibits the growth of the following gram-negative bacteria
gram-positive bacteria
  growth inhibition: inhibits the growth of the following gram-positive bacteria
bacteria
  bactericidal action: bactericidal
  development of resistance: resistance to it develops slowly
[15]
  Percent Inactivation After Incubation With Washed Bacterial Cells: 0%
[16]
  Percent Inactivation After Incubation With Washed Bacterial Cells: 54.4%

## CO[C@@]1(NC(=O)CCC[C@@H](NC(=O)OC(C)(C)C)C(=O)O)C(=O)N2C(C(=O)O)=C(COC(N)=O)CS[C@@H]21 [7β-(D-5-N-tertiary-butoxycarbonylamino-5-carboxyvaleramido)-3-(carbamoyloxymethyl)-7-methoxy-3-cephem-4-carboxylic acid]
[17]
  biopotency relative to starting material: one-tenth the biopotency of the starting material

## CO[C@@]1(NC(=O)CCC[C@@H](N)C(=O)O)C(=O)N2C(C(=O)O)=C(CN=[N+]=[N-])CS[C@@H]21 [7β-(D-5-amino-5-carboxyvaleramido)-3-(azidomethyl)-7-methoxy-3-cephem-4-carboxylic acid]
Escherichia coli W-MB-60 [18]
  zone of inhibition at 100 µg/mL: 21 mm
[19]
  zone of inhibition at 100 µg/mL: 20 mm
[20]
  bioactivity: possessed bioactivity against several strains of bacteria
Vibrio percolans MB-1272
  zone of inhibition at 5 µg/mL: 16 mm

## COC(=Cc1ccc(OS(=O)(=O)O)cc1)C(=O)OCC1=C(C(=O)O)N2C(=O)[C@](NC(=O)CCC[C@@H](N)C(=O)O)(OC)[C@H]2SC1 [Ic, 7β-(D-5-amino-5-carboxyvaleramido)-3-(α-methoxy-p-sulfooxycinnamoyloxymethyl)-7-methoxy-3-cephem-4-carboxylic acid]
[21]
  toxicity: low order of toxicity in mice
[13]
  protection against infection, oral: protects against infections due to Proteus vulgaris
  in vivo activity / protection spectrum: when administered intraperitoneally it is effective against a variety of gram-negative and gram-positive infections
[14]; listed as 7β-(D-5-amino-5-carboxyvaleramido)-3-(α-methyoxy-p-sulfooxycinnamoyloxymethyl)-7
  resistance to enzymatic degradation / inactivation: greater resistance to cephalosporinases than cephalothin; also recorded: more resistant to enzymatic degradation than cephalosporin C
bacteria
  bactericidal action: bactericidal
